Results published in patent publication US9545438B2, “Determination of antigenicity of an inactivated virus” (Universiteit Gent, priority 2008, dated 2017).

How the values were obtained:
[1] = test system: CHO^Sn-CD163 cell line IF3; assay: Binding, internalization, fusion and infection in CHO^Sn-CD163 cell line IF3; type: cell-based, Chinese Hamster
Procedure: (§1) Macrophages or CHO cells (including CHO^Sn and CHO^Sn-CD163 cells, i.e., the CHO cells expressing sialoadhesin and CD163 deposited on May 14, 2008 at the Belgian Coordinated Collections of Microorganisms as CHO^Sn/CD163 IC5; CHO^Sn/CD163 ID9 and CHO^Sn/CD163 IF3 with the respective accession numbers (LMBP 6677CB, LMBP 6678CB, and […]) were incubated for one hour at 37° C. with the treated PRRSV and fixed with methanol. Then the capsid protein was stained with a primary antibody P3/27 and a secondary antibody goat-anti-mouse FITC. Confocal analysis was performed to determine the amount of internalized PRRSV.
(§2) Macrophages, CHO^Sn or CHO^Sn-CD163 cells were seeded at 200,000 cells/ml in a 24-well plate with insert. After two days, the cells were inoculated with wild-type Lelystad Virus (LV) grown on MARC-145 cells and inactivated LV grown on MARC-145 cells. The cells were fixed with methanol after one hour at 4° C. (binding; 0 hpi), one hour at 37° C. (internalization), five hours at 37° C. […] (infection) and 24 hours at 37° C. (infection). The virus was stained with a primary antibody P3/27 (anti-capsid) and a secondary antibody goat-anti-mouse FITC. The virus particles were counted with a confocal microscope.

[2] = test system: CHO^Sn-CD163 cell line ID9; assay: Binding, internalization, fusion and infection in CHO^Sn-CD163 cell line ID9; type: cell-based, Chinese Hamster
Procedure: as §1, §2

macrophages = assay: Attachment, internalization, fusion and replication of inactivated PRRSV in macrophages by immunostaining and confocal microscopy; type: cell-based, porcine; conditions: 1 hpi
Description: The European strain Lelystad virus (LV) of PRRSV (Wensvoort et al., 1991) grown on MARC-145 cells (5th passage) was used for inactivation. MARC-145 cells cultivated in minimum Eagle's medium (MEM) with 5% FCS, 1% glutamine, 1% penicillin-streptomycin and 1% kanamycin were used for LV production and titration of inactivated virus. Attachment and internalization of the inactivated virus was investigated in macrophages that where cultivated in medium containing RPMI 1640, 10% FCS, 1% penicillin-streptomycin, 1% kanamycin, 1% gentamycin, 1% tylosin, 1% glutamine, 1% nonessential amino acids and 1% sodium pyruvate for 24 hours before inoculation. When CHO cells were used, the cells were cultivated in F12 with 10% FCS, 1% penicillin-streptomycin, 1% kanamycin, 1% glutamine, and 1% sodium pyruvate and were transfected with sialoadhesin. As the macrophages, the CHO cells were also cultivated 24 hours before inoculation. […]
Macrophages, CHO^Sn or CHO^Sn-CD163 cells were seeded at 200,000 cells/ml in a 24-well plate with insert. […] The virus particles were counted with a confocal microscope.

[3] = test system: CHO^Sn-CD163 cell line IC5; assay: Binding, internalization, fusion and infection in CHO^Sn-CD163 cell line IC5; type: cell-based, Chinese Hamster
Procedure: as §1, §2

MARC-145 cells = assay: Virus titration of treated PRRSV on MARC-145 cells (inactivation curve); type: cell-based; conditions: four hours at 37° C.
Procedure: Formaldehyde was then removed by ultracentrifugation. Inactivation with glutaraldehyde was performed with purified virus (10^7 TCID50/ml) that was incubated for four hours at 37° C. with different concentrations (0-0.005-0.05-0.5-5 or 50 ng/ml) glutaraldehyde (Sigma) (Darnell et al., 2004). Glutaraldehyde was removed by ultracentrifugation afterwards. For inactivation with 2,2-dithiodipyridine (AT-2), purified virus (10^7 TCID50/ml) was incubated for four hours at 37° C. with different concentrations (0-10-30-100-300 or 1000 μM) AT-2 (Aldrich) (Rossio et al., 1998; Chertova et al., 2003). Afterwards, AT-2 was removed by ultracentrifugation. For inactivation by changing the pH, the pH was adjusted with HCl of 32% to pH2 and with NaOH to pH12. Purified virus (10^7 TCID50/ml) was incubated for several hours at a pH2 or at a pH12. After incubation, the pH was neutralized (Darnell et al., 2004). For inactivation of PRRSV at a certain temperature, purified virus (10^7 TCID50/ml) was incubated for several (0-6-12-24-48 or 72) hours at 37° C. […]
Virus titration was performed in a 96-well plate with a confluent monolayer of MARC-145 cells. […] After three to five days incubation at 37° C., the occurrence of cytopathic effect (CPE) was investigated and the 50% tissue culture infective dose (TCID50) could be calculated. […]

| SMILES | Binding (particles counted at 0 hpi) [1] | Fusion (particles counted at 5 hpi) [1] | Infection 12 hpi (%) [1] | Infection 24 hpi (%) [1] | Internalization (particles counted at 1 hpi) [1] | Binding (particles counted at 0 hpi) [2] | Fusion (particles counted at 5 hpi) [2] | Infection 12 hpi (%) [2] | Infection 24 hpi (%) [2] | Internalization (particles counted at 1 hpi) [2] | internalization in macrophages (macrophages; 0.1 ng/ml formaldehyde) | Binding (particles counted at 0 hpi) [3] | Fusion (particles counted at 5 hpi) [3] | Infection 12 hpi (%) [3] | Infection 24 hpi (%) [3] | Internalization (particles counted at 1 hpi) [3] | infectious virus detected by titration (MARC-145 cells; lowest concentration of 10 pg/ml formaldehyde) | internalization in macrophages (macrophages; 50 ng/ml glutaraldehyde) | infectious virus detected by titration (MARC-145 cells; 0.5 ng/ml glutaraldehyde or more) |
| --- | --- | --- | --- | --- | --- | --- | --- | --- | --- | --- | --- | --- | --- | --- | --- | --- | --- | --- | --- |
| C=O [formaldehyde] | 1 particles | 1 particles | 0% | 0% | 0 particles | 2 particles | 0 particles | 0% | 0% | 0 particles | no longer able to internalize | 0 particles | 0 particles | 0% | 0% | 0 particles | no infectious virus detected | – | – |
| O=CCCCC=O [glutaraldehyde] | 2 particles | 1 particles | 0% | 0% | 0 particles | 0 particles | 0 particles | 0% | 0% | 0 particles | – | 1 particles | 0 particles | 0% | 0% | 0 particles | – | no longer able to internalize | no infectious virus could be detected |
